Laboratory results published in ChEMBL document CHEMBL3885861, “Open TG-GATES”.

Species: Rattus norvegicus
Test: Open TG-GATES - Regimen: Single
Assay type: toxicity, organism-based, Sprague-Dawley
Parameters: regimen Single, gender Male, age 6 weeks
Conditions: in vivo, ip, 0.3 mg/kg, route intraperitoneal injection, dose 300 ug/Kg, dose level High; for APTT / Bas / Eos / Fbg / Hb / Ht / Lym / MCH / MCHC / MCV / Mono / Neu / PT / Plat / RBC / Ret / WBC: tissue Blood; for KIDNEY_L / KIDNEY_R / KIDNEY_TOTAL: tissue Kidney; for LIVER: tissue Liver; for A/G / ALP / ALT / AST / BUN / CRE / Ca / Cl / DBIL / GLC / IP / K / LDH / Na / PL / RALB / TBIL / TC / TG / TP / gamma-GTP: tissue Plasma

Question: What does the source list for CC(=O)N[C@H]1[C@@H](O[C@@H]2O[C@H](CC(O)[C@H]3O[C@@H](n4ccc(=O)[nH]c4=O)[C@H](O)[C@@H]3O)[C@H](O)[C@H](O)[C@H]2NC(=O)/C=C/CC(C)C)O[C@H](CO)[C@@H](N)[C@@H]1O (some centres not stated) [TUNICAMYCIN]?
Answer: TERMINAL_BW (3 h): 222.1 g; APTT (3 h): 21.6 s; Bas (3 h): 0%; Eos (3 h): 0.4%; Fbg (3 h): 288.4 mg/dL; Hb (3 h): 13.1 g/dL; Ht (3 h): 40.3%; Lym (3 h): 80.8%; MCH (3 h): 20.8 pg; MCHC (3 h): 32.5%; MCV (3 h): 64 fL; Mono (3 h): 3%; Neu (3 h): 14.6%; PT (3 h): 15.5 s; Plat (3 h): 108.9 x10_4/uL; RBC (3 h): 630.4 x10_4/ul; Ret (3 h): 8%; WBC (3 h): 89.8 x10_2/uL; KIDNEY_L (3 h): 1 g; KIDNEY_R (3 h): 1 g; KIDNEY_TOTAL (3 h): 2 g; LIVER (3 h): 10.1 g; A/G (3 h): 1.2; ALP (3 h): 1378 IU/L; ALT (3 h): 38.4 IU/L; AST (3 h): 70.6 IU/L; BUN (3 h): 13.6 mg/dL; CRE (3 h): 0.1 mg/dL; Ca (3 h): 10.9 mg/dL; Cl (3 h): 106.6 meq/L; DBIL (3 h): 0 mg/dL; GLC (3 h): 167.8 mg/dL; IP (3 h): 8.4 mg/dL; K (3 h): 4.4 meq/L; LDH (3 h): 154 IU/L; Na (3 h): 140.4 meq/L; PL (3 h): 127.4 mg/dL; RALB (3 h): 2.9 g/dL; TBIL (3 h): 0.016 mg/dL; TC (3 h): 68.6 mg/dL; TG (3 h): 71 mg/dL; TP (3 h): 5.3 g/dL; gamma-GTP (3 h): 1.4 IU/L; TERMINAL_BW (6 h): 219.8 g; APTT (6 h): 21.5 s; Bas (6 h): 0%; Eos (6 h): 0.8%; Fbg (6 h): 309.6 mg/dL; Hb (6 h): 13.3 g/dL; Ht (6 h): 41%; Lym (6 h): 70.8%; MCH (6 h): 20.8 pg; MCHC (6 h): 32.5%; MCV (6 h): 64 fL; Mono (6 h): 3.2%; Neu (6 h): 24.2%; PT (6 h): 15.9 s; Plat (6 h): 118.2 x10_4/uL; RBC (6 h): 640.4 x10_4/ul; Ret (6 h): 7.6%; WBC (6 h): 84.7 x10_2/uL; KIDNEY_L (6 h): 1 g; KIDNEY_R (6 h): 1 g; KIDNEY_TOTAL (6 h): 1.9 g; LIVER (6 h): 9.1 g; A/G (6 h): 1.2; ALP (6 h): 1426.6 IU/L; ALT (6 h): 41.4 IU/L; AST (6 h): 73.6 IU/L; BUN (6 h): 12.6 mg/dL; CRE (6 h): 0.1 mg/dL; Ca (6 h): 10.7 mg/dL; Cl (6 h): 107 meq/L; DBIL (6 h): 0.002 mg/dL; GLC (6 h): 173.8 mg/dL; IP (6 h): 9.1 mg/dL; K (6 h): 4.5 meq/L; LDH (6 h): 175.8 IU/L; Na (6 h): 141 meq/L; PL (6 h): 125 mg/dL; RALB (6 h): 2.9 g/dL; TBIL (6 h): 0.012 mg/dL; TC (6 h): 71 mg/dL; TG (6 h): 50.4 mg/dL; TP (6 h): 5.4 g/dL; gamma-GTP (6 h): 1.2 IU/L; TERMINAL_BW (9 h): 212.4 g; APTT (9 h): 20.8 s; Bas (9 h): 0%; Eos (9 h): 0.4%; Fbg (9 h): 307 mg/dL; Hb (9 h): 13.5 g/dL; Ht (9 h): 41.4%; Lym (9 h): 73.8%; MCH (9 h): 20.9 pg; MCHC (9 h): 32.7%; MCV (9 h): 63.7 fL; Mono (9 h): 2.8%; Neu (9 h): 21.4%; PT (9 h): 16.4 s; Plat (9 h): 121.3 x10_4/uL; RBC (9 h): 649.2 x10_4/ul; Ret (9 h): 7.1%; WBC (9 h): 84 x10_2/uL; KIDNEY_L (9 h): 1 g; KIDNEY_R (9 h): 1 g; KIDNEY_TOTAL (9 h): 1.9 g; LIVER (9 h): 8.8 g; A/G (9 h): 1.2; ALP (9 h): 1397.6 IU/L; ALT (9 h): 43.4 IU/L; AST (9 h): 86.6 IU/L; BUN (9 h): 17.4 mg/dL; CRE (9 h): 0.1 mg/dL; Ca (9 h): 10.5 mg/dL; Cl (9 h): 107.4 meq/L; DBIL (9 h): 0 mg/dL; GLC (9 h): 164.8 mg/dL; IP (9 h): 9.4 mg/dL; K (9 h): 4.4 meq/L; LDH (9 h): 185.6 IU/L; Na (9 h): 140.8 meq/L; PL (9 h): 114.8 mg/dL; RALB (9 h): 3 g/dL; TBIL (9 h): 0.018 mg/dL; TC (9 h): 68.2 mg/dL; TG (9 h): 22.2 mg/dL; TP (9 h): 5.4 g/dL; gamma-GTP (9 h): 1 IU/L; TERMINAL_BW (24 h): 228.7 g; APTT (24 h): 23.4 s; Bas (24 h): 0%; Eos (24 h): 1.2%; Fbg (24 h): 288 mg/dL; Hb (24 h): 13.2 g/dL; Ht (24 h): 41%; Lym (24 h): 76.2%; MCH (24 h): 20.1 pg; MCHC (24 h): 32.2%; MCV (24 h): 62.4 fL; Mono (24 h): 3.6%; Neu (24 h): 18.4%; PT (24 h): 16.5 s; Plat (24 h): 122.4 x10_4/uL; RBC (24 h): 658.2 x10_4/ul; Ret (24 h): 7.2%; WBC (24 h): 97.7 x10_2/uL; KIDNEY_L (24 h): 1 g; KIDNEY_R (24 h): 1 g; KIDNEY_TOTAL (24 h): 1.9 g; LIVER (24 h): 10.8 g; A/G (24 h): 1.3; ALP (24 h): 1621.2 IU/L; ALT (24 h): 55 IU/L; AST (24 h): 86.6 IU/L; BUN (24 h): 14.8 mg/dL; CRE (24 h): 0.2 mg/dL; Ca (24 h): 10.4 mg/dL; Cl (24 h): 106.4 meq/L; DBIL (24 h): 0 mg/dL; GLC (24 h): 174.4 mg/dL; IP (24 h): 7.5 mg/dL; K (24 h): 4.5 meq/L; LDH (24 h): 181.4 IU/L; Na (24 h): 141.2 meq/L; PL (24 h): 120.8 mg/dL; RALB (24 h): 3 g/dL; TBIL (24 h): 0.012 mg/dL; TC (24 h): 58.4 mg/dL; TG (24 h): 70.8 mg/dL; TP (24 h): 5.3 g/dL; gamma-GTP (24 h): 1.6 IU/L
